Results from ChEMBL document CHEMBL4387741, “Optimization of novel reversible Bruton's tyrosine kinase inhibitors identified using Tethering-fragment-based screens” (Bioorg Med Chem, 2019).

How the values were obtained:
[1] = target: Ephrin type-B receptor 2 (Homo sapiens) (UniProt P29323); experiment: Inhibition of wild-type human partial length EPHB2 (I597 to L902 residues) expressed in bacterial expression system at 1 uM by Kinomescan method relative to control
[2] = target: TGF-beta receptor type-2 (Homo sapiens) (UniProt P37173); experiment: Inhibition of wild-type human partial length TGFBR2 (I218 to K567 residues) expressed in bacterial expression system at 1 uM by Kinomescan method relative to control
[3] = target: Tyrosine-protein kinase Blk (Homo sapiens) (UniProt P51451); experiment: Inhibition of wild-type human partial length BLK (G211 to L503 residues) expressed in bacterial expression system at 1 uM by Kinomescan method relative to control
[4] = target: Ephrin type-A receptor 4 (Homo sapiens) (UniProt P54764); experiment: Inhibition of wild-type human partial length EPHA4 (T601 to R897 residues) expressed in bacterial expression system at 1 uM by Kinomescan method relative to control
[5] = target: SRSF protein kinase 3 (Homo sapiens) (UniProt Q9UPE1); experiment: Inhibition of wild-type human partial length SRPK3 (P41 to P567 residues) expressed in bacterial expression system at 1 uM by Kinomescan method relative to control
SRSF protein kinase 3 (Homo sapiens), sequence (Q9UPE1 whole entry, the tested form may be a part): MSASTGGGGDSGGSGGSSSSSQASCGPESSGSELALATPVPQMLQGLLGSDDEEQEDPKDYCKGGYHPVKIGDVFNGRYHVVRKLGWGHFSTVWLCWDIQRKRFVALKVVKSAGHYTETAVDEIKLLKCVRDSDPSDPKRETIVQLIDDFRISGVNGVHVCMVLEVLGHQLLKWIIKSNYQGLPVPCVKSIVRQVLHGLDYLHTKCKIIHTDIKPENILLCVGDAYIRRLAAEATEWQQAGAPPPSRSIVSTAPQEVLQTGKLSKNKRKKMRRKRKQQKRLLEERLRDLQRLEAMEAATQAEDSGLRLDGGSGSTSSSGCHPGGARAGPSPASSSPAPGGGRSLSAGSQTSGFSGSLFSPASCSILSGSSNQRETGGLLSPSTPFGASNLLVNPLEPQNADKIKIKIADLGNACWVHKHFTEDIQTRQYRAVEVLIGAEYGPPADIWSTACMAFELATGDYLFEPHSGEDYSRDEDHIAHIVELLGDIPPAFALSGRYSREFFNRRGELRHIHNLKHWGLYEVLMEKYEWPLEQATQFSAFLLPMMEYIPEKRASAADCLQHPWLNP

[6] = target: Cyclin-dependent kinase 18 (Homo sapiens) (UniProt Q07002); experiment: Inhibition of wild-type human full length PCTK3 (M3 to F474 residues) expressed in bacterial expression system at 1 uM by Kinomescan method relative to control
[7] = target: Hormonally up-regulated neu tumor-associated kinase (Homo sapiens) (UniProt P57058); experiment: Inhibition of wild-type human partial length HUNK (A31 to K354 residues) expressed in bacterial expression system at 1 uM by Kinomescan method relative to control
[8] = target: Tyrosine-protein kinase ZAP-70 (Homo sapiens) (UniProt P43403); experiment: Inhibition of wild-type human partial length ZAP70 (D20 to G299 residues) expressed in mammalian expression system at 1 uM by Kinomescan method relative to control
Tyrosine-protein kinase ZAP-70 (Homo sapiens), sequence (P43403 whole entry, the tested form may be a part): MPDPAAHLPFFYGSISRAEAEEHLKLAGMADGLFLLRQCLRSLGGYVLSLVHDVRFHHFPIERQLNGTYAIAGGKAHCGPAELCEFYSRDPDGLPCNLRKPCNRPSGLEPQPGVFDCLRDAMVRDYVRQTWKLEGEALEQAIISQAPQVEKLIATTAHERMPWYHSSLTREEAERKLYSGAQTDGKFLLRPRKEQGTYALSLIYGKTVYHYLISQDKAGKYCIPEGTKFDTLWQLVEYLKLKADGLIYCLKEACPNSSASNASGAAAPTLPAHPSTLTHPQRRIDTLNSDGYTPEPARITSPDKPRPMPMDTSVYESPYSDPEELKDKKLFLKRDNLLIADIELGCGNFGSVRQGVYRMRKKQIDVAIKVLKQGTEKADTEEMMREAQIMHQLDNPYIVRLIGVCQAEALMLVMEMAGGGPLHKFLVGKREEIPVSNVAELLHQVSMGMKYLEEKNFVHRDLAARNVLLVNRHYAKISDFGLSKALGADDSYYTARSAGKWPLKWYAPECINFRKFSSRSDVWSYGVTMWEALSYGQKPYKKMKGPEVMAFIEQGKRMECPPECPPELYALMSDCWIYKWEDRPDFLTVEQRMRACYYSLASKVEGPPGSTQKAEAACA

[9] = target: Leucine-rich repeat serine/threonine-protein kinase 2 (Homo sapiens) (UniProt Q5S007); experiment: Inhibition of wild-type human partial length LRRK2 (H970 to E2527 residues) expressed in mammalian expression system at 1 uM by Kinomescan method relative to control
[10] = target: Serine/threonine-protein kinase ULK3 (Homo sapiens) (UniProt Q6PHR2); experiment: Inhibition of wild-type human partial length ULK3 (M1 to Q290 residues) expressed in mammalian expression system at 1 uM by Kinomescan method relative to control
[11] = target: RAC-beta serine/threonine-protein kinase (Homo sapiens) (UniProt P31751); experiment: Inhibition of wild-type human partial length AKT2 expressed in bacterial expression system at 1 uM by Kinomescan method relative to control
[12] = target: BDNF/NT-3 growth factors receptor (Homo sapiens) (UniProt Q16620); experiment: Inhibition of wild-type human partial length TRKB (Q547 to G838 residues) expressed in mammalian expression system at 1 uM by Kinomescan method relative to control
[13] = target: Serine/threonine-protein kinase BRSK1 (Homo sapiens) (UniProt Q8TDC3); experiment: Inhibition of wild-type human partial length BRSK1 (M1 to E754 residues) expressed in bacterial expression system at 1 uM by Kinomescan method relative to control
[14] = target: Serine/threonine-protein kinase RIO1 (Homo sapiens) (UniProt Q9BRS2); experiment: Inhibition of wild-type human full length RIOK1 (M1 to K568 residues) expressed in bacterial expression system at 10 uM by Kinomescan method relative to control
Serine/threonine-protein kinase RIO1 (Homo sapiens), sequence (Q9BRS2 whole entry, the tested form may be a part): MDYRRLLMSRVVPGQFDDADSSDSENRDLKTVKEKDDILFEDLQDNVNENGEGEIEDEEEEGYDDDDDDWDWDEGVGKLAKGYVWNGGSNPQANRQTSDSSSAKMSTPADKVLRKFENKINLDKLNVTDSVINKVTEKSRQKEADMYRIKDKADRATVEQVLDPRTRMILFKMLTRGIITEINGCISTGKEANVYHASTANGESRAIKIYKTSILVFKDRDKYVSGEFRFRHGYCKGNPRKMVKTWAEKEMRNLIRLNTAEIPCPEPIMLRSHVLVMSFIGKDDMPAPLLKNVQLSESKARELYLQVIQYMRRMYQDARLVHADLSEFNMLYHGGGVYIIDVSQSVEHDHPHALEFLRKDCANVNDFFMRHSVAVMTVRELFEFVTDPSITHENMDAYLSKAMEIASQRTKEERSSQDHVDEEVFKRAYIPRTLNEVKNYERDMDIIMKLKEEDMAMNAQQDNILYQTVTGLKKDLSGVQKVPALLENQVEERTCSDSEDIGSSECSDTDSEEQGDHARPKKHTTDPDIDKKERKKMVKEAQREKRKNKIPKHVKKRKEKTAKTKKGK

[15] = target: Fibroblast growth factor receptor 3 (Homo sapiens) (UniProt P22607); experiment: Inhibition of wild-type human partial length FGFR3 (R442 to S771 residues) expressed in bacterial expression system at 10 uM by Kinomescan method relative to control
[16] = test system: Epidermal growth factor receptor (Homo sapiens), P00533 [UNDEFINED MUTATION]; experiment: Inhibition of human partial length EGFR L747-E749del/A750P mutant expressed in bacterial expression system at 10 uM by Kinomescan method relative to control
[17] = target: Dual specificity mitogen-activated protein kinase kinase 1 (Homo sapiens) (UniProt Q02750); experiment: Inhibition of wild-type human full length MEK1 (M1 to V393 residues) expressed in mammalian expression system at 10 uM by Kinomescan method relative to control
[18] = target: Serine/threonine-protein kinase PLK1 (Homo sapiens) (UniProt P53350); experiment: Inhibition of wild-type human partial length PLK1 (A33 to F325 residues) expressed in mammalian expression system at 10 uM by Kinomescan method relative to control
Serine/threonine-protein kinase PLK1 (Homo sapiens), sequence (P53350 whole entry, the tested form may be a part): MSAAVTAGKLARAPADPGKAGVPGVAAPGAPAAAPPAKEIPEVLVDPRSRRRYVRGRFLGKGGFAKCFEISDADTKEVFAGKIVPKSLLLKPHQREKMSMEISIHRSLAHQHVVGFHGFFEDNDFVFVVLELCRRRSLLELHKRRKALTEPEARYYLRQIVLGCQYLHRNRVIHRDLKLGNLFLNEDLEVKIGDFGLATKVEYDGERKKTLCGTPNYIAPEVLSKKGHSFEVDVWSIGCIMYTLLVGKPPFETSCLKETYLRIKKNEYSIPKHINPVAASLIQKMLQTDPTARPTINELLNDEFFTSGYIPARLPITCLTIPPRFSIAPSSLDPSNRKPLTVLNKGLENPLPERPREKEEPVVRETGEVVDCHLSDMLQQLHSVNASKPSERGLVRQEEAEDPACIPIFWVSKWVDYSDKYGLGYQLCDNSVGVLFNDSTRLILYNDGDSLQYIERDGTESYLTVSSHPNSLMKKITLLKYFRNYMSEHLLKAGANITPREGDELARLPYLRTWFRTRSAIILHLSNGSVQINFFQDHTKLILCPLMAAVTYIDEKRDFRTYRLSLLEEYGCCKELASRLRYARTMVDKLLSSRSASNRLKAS

[19] = target: Ribosomal protein S6 kinase alpha-2 (Homo sapiens) (UniProt Q15349); experiment: Inhibition of wild-type human partial length N-terminal RSK3 kinase domain 1 (M1 to Q385 residues) expressed in bacterial expression system at 10 uM by Kinomescan method relative to control
[20] = target: Dual specificity testis-specific protein kinase 1 (Homo sapiens) (UniProt Q15569); experiment: Inhibition of wild-type human full length TESK1 (R37 to S626 residues) expressed in bacterial expression system at 10 uM by Kinomescan method relative to control
Dual specificity testis-specific protein kinase 1 (Homo sapiens), sequence (Q15569 whole entry, looked up, the tested form may be a part): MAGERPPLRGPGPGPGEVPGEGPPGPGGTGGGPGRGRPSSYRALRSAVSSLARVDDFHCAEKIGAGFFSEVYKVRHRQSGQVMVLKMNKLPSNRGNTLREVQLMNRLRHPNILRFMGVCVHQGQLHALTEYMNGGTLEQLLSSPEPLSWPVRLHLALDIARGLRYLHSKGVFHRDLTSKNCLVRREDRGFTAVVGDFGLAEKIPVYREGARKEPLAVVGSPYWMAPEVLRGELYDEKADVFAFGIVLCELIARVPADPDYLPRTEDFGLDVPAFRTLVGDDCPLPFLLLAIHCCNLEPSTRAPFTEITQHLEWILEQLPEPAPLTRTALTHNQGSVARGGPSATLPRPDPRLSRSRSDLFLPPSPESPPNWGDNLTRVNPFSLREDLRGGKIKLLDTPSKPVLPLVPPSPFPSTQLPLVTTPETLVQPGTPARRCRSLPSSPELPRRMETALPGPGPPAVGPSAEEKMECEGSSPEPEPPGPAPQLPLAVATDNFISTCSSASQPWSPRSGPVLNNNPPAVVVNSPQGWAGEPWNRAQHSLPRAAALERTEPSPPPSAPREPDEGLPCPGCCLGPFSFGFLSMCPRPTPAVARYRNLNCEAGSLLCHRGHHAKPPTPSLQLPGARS

[21] = target: Serine/threonine-protein kinase D1 (Homo sapiens) (UniProt Q15139); experiment: Inhibition of wild-type human partial length PRKD1 (G551 to E870 residues) expressed in bacterial expression system at 10 uM by Kinomescan method relative to control
[22] = target: Phosphatidylinositol 4,5-bisphosphate 3-kinase catalytic subunit delta isoform (Homo sapiens) (UniProt O00329); experiment: Inhibition of wild-type human partial length PIK3CD (R108 to Q1044 residues) expressed in mammalian expression system at 10 uM by Kinomescan method relative to control
Phosphatidylinositol 4,5-bisphosphate 3-kinase catalytic subunit delta isoform (Homo sapiens), sequence (O00329 whole entry, the tested form may be a part, canonical isoform): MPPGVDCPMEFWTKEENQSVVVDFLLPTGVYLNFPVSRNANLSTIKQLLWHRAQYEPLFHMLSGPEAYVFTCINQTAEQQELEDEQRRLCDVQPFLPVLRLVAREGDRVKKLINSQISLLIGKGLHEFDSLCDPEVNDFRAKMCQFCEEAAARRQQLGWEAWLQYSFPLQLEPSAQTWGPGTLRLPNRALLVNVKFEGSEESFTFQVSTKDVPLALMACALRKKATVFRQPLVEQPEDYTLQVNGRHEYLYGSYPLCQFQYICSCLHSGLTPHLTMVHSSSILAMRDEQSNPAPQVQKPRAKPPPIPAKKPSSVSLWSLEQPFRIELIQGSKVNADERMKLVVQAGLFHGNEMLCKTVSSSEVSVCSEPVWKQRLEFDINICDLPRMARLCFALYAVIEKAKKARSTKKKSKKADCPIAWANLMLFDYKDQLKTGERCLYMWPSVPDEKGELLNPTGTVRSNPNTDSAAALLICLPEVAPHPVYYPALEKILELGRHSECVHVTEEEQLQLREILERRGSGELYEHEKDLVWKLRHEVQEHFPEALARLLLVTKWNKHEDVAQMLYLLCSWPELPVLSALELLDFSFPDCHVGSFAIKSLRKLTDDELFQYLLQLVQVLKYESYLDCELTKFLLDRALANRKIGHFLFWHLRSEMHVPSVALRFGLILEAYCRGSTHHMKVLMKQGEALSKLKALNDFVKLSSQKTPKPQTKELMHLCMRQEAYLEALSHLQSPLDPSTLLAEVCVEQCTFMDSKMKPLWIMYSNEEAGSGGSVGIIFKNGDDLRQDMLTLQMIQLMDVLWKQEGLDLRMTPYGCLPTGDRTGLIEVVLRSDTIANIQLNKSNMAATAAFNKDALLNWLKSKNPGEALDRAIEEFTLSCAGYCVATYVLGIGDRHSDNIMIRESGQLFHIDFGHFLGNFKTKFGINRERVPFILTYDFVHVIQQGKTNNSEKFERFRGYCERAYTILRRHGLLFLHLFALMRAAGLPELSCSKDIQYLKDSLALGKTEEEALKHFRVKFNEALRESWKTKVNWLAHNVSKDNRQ

[23] = target: Serine/threonine-protein kinase TNNI3K (Homo sapiens) (UniProt Q59H18); experiment: Inhibition of wild-type human full length TNNI3K (M1 to S835 residues) expressed in bacterial expression system at 10 uM by Kinomescan method relative to control
[24] = target: Platelet-derived growth factor receptor alpha (Homo sapiens) (UniProt P16234); experiment: Inhibition of wild-type human partial length PDGFRA (V575 to D1002 residues) expressed in mammalian expression system at 10 uM by Kinomescan method relative to control
[25] = test system: Tyrosine-protein kinase ABL1 (Homo sapiens), P00519 [Q252H]; experiment: Inhibition of human phosphorylated ABL1 Q252H mutant expressed in mammalian expression system at 10 uM by Kinomescan method relative to control
[26] = target: Ephrin type-A receptor 7 (Homo sapiens) (UniProt Q15375); experiment: Inhibition of wild-type human partial length EPHA7 (Y608 to S912 residues) expressed in bacterial expression system at 10 uM by Kinomescan method relative to control
Ephrin type-A receptor 7 (Homo sapiens), sequence (Q15375 28-998 limits assumed): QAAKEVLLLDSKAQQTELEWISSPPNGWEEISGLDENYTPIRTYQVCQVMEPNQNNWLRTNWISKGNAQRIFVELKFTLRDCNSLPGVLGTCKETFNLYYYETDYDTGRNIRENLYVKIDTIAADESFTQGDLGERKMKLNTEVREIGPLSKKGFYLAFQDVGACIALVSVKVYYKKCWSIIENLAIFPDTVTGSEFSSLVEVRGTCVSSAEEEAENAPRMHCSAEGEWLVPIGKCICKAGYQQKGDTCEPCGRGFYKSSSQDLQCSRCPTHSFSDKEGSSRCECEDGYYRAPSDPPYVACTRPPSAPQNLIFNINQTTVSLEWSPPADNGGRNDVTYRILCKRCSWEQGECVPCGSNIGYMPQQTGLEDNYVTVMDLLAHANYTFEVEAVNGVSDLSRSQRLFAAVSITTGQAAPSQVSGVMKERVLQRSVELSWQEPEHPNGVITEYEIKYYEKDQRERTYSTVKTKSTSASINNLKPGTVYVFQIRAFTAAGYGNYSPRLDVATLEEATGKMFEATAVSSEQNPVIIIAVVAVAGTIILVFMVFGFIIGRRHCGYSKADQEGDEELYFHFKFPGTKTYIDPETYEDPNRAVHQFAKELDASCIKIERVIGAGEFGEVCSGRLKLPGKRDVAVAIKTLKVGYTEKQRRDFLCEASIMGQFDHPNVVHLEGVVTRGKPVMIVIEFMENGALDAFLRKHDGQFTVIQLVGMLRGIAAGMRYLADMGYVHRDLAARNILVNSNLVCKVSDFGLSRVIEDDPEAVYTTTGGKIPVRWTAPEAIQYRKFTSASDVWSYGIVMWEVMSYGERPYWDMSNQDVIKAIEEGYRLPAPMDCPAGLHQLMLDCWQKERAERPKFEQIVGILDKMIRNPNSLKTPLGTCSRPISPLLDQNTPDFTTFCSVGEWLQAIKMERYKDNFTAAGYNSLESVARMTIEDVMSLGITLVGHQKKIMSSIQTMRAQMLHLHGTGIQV

[27] = target: Mitogen-activated protein kinase kinase kinase 2 (Homo sapiens) (UniProt Q9Y2U5); experiment: Inhibition of wild-type human partial length MAP3K2 (S315 to H619 residues) expressed in mammalian expression system at 10 uM by Kinomescan method relative to control

`O=C(Nc1cccc([C@@H]2CN(c3ncnc4[nH]ccc34)CCN2CCO)c1)Nc1c(F)cccc1N1CCCC1` gave an inhibition [1] of 85%, an inhibition [2] of 100% and an inhibition [3] of 20%. The inhibition [4] was 100%, the inhibition [5] was 68% and the inhibition [6] was 97%. It also gave an inhibition [7] of 100%, an inhibition [8] of 80% and an inhibition [9] of 100%. For the same molecule, the inhibition [10] was 11%, the inhibition [11] was 100% and the inhibition [12] was 100%. The inhibition [13] was 100%.

For `O=C(Nc1cccc([C@H]2CCCN(c3ncnc4[nH]ccc34)C2)c1)Nc1ccccc1N1CCCC1`, the inhibition [14] was 0%, the inhibition [15] was 46% and the inhibition [16] was 82%. The inhibition [17] was 14%, the inhibition [18] was 72% and the inhibition [19] was 78%. The inhibition [20] was 100%, the inhibition [21] was 100% and the inhibition [22] was 99%. The inhibition [23] was 100%, the inhibition [24] was 0.6% and the inhibition [25] was 83%. It also gave an inhibition [26] of 72% and an inhibition [27] of 27%.
